Measurements reported in patent publication US20060040945A1, “Annellated pyrrole compounds as proton pump inhibitors for treating ulcer” (MERCKLE GMBH, priority 2002, published 2006).
Where two headings read alike, the source gives them in different places. Each block holds one compound with its values, some of them ahead of it.

Experiments:
gastric H,K-ATPase [1] = target: T1, gastric H,K-ATPase (Sus scrofa, UniProt P19156); assay: K+-stimulated, SCH28080-sensitive H,K-ATPase activity of pig gastric microsomes (32Pi release from ATP); type: biochemical; settings: for IC50: pig gastric microsomes, pH 7.0, 20 minutes at 37° C., read-out: half-maximal inhibitory concentration (IC50), H,K-ATPase activity; for effect on H,K-ATPase activity: non-physiological concentrations greater than 10^−7 M; for inhibitory activity against H,K-ATPase: physiological concentrations (10^−9-10^−8 M); for inhibitory effect on microsomal H,K-ATPase activity: concentrations up to 10^−4 M
T1 construct: Reaction mixtures for assay of K^+-stimulated ATPase activity in pig gastric microsomal membranes contained 5 μg membrane protein; from tissue; host or cells: pig gastric fundic mucosa, G1 microsomal fraction
T1 sequence (P19156 2-1034 limits assumed): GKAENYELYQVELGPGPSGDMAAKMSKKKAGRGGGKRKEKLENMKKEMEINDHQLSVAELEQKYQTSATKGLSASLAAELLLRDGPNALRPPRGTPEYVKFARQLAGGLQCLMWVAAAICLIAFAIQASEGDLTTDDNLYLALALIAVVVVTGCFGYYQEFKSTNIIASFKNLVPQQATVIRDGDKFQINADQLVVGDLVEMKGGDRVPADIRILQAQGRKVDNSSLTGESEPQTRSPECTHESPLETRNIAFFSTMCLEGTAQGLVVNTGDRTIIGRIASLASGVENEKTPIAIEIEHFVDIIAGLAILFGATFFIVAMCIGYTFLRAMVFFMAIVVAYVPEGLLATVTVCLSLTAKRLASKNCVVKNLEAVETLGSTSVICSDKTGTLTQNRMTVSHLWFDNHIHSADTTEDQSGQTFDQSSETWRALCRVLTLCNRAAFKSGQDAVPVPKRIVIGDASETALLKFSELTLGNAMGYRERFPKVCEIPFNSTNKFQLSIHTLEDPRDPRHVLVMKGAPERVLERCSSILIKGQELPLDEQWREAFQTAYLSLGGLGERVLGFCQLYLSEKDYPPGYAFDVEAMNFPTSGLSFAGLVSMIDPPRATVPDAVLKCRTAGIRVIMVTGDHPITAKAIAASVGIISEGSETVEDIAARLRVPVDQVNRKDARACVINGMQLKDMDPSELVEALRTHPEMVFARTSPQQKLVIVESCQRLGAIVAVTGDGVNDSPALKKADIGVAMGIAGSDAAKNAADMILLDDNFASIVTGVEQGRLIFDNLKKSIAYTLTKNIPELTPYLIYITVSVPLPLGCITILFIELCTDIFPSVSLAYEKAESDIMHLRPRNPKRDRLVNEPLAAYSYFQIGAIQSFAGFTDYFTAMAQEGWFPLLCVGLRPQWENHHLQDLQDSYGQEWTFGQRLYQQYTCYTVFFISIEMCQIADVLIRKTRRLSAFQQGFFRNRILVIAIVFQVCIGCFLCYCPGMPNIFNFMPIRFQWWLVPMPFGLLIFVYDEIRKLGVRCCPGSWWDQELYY
T1 sequence (P18434 whole entry partner): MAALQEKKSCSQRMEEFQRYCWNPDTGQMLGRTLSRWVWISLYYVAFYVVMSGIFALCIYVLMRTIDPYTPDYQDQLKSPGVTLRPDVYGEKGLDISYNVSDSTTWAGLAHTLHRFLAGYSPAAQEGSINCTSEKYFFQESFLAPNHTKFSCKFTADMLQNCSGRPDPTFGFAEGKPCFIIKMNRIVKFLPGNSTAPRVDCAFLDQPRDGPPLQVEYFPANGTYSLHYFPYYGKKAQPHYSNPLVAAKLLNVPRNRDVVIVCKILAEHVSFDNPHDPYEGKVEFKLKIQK
Procedure: Strategy. Microsomal gastric H,K-ATPase was prepared from pig gastric mucosal homogenates by differential centrifugation. Briefly, pig stomachs obtained at a slaughter-house within 1 hour post mortem were washed with ice-cold 0,25 M sucrose and the fundus was dissected from the cardiac and antral regions. All subsequent prodedures were at 4° C. The mucosa was flooded with saturated NaCl, and the surface mucus and superficial cells wiped off with paper towels. The mucosa was scraped from the underlying connective tissue, suspended (10% w/v) in isolation buffer (0,25 M sucrose, 20 mM HEPES, pH 7,4, 1 mM EDTA, 1 mM phenylmethylsulfonyl fluoride), and disrupted by two 10 second bursts at maximum power in a Tissumizer (Tekmar, Cincinnati, Ohio). The homogenate was centrifuged at 20,000 g for 30 minutes, and the supernatant was centrifuged at 10^5 g for 1 hour. The resulting microsomal pellet was resuspended in isolation buffer, and applied to a discontinuous gradient of 7% w/v Ficoll and 34% sucrose (both in isolation buffer). After 3 hours at 32,500 rpm (Sorvall AH 629 rotor), the microsomal band (G1) recovered from the 7% Ficoll interface was resuspended to 10 mg/ml in 15 mM PIPES-Tris, pH 6,8, diluted 1:1 with cold 60% sucrose, lyophilized in 0,5 ml aliquots, and stored at −70° C. Gl microsomes were about 0,1 microns in diameter, were enriched in H.K.-ATPase activity, and more than 80% of their protein content banded at 94 kDa by SDS-PAGE. ATP hydrolytic activity of microsomes was quantitated in terms of inorganic phosphate release from substrate ATP and measured in graded concentrations (ranging from 10^−9M to 10^−4M) of ML 3000, and a wide range of other compounds. Reaction mixtures for assay of K^+-stimulated ATPase activity in pig gastric microsomal membranes contained 5 μg membrane protein, 100 mM Tris-acetate, pH 7.0, 1 mM MgCl2, 1 mM NaNa, 0,1 mM EGTA, 5 μM ATP (γ-^32P-ATP, 10 Ci/mmol, NEN, Boston, Mass.), 0-10 mM KCl, and 0-100 μM SCH 28080. After 20 minutes incubation at 37° C., reactions were stopped by addition of 10% w/v activated charcoal (Sigma), 5,5% w/v trichloroacetic acid, vortexed vigorously, and centrifuged at 14,000 g for 10 minutes at 4° C. Inorganic phosphate (γ-^32Pi) content of the supernatant was measured by scintillation counting. […] Graphs with standard error bars present inter-assay data variance in three independent assays in each of which ATPase activities in three separate but identical reaction conditions were measured. Graphs without standard error bars represent the mean ATPase activities in three separate but identical reaction conditions in one of at least three independent assays; typical data are shown in these cases.
The wide range of published PPI IC50 values for microsomal H,K-ATPase reflects the mechanistic necessity for compound acidification to allow formation of a thiol-reactive […] intermediate which then irreversibly derivatizes H,K-ATPase a subunit cysteine residues leading to enzyme inhibition. […] Microsomal vesicle preparations vary widely in their ion-tightness, which affects the extent to which internal pH can be lowered by H,K-ATPase turnover, and therefore the extent to which omeprazole diffusing into the vesicle can be acidified and activated. Alternatively, prior in vitro acidification of omeprazole ensures induction of its inhibitory properties, and is essential in assays carried out using ion-permeable microsomal H,K-ATPase preparations. For this reason, the omeprazole inhibitory data shown in FIG. 2 were derived using omeprazole acidified to pH 6.1 and incubated with the enzyme for 30 min at the same pH (8).
Given that PPIs are irreversible inhibitors of H,K-ATPase activity, covalently binding to the catalytic α-subunit, it was determined whether ML 3000 inhibition of H,K-ATPase was reversible or irreversible. […]

[2] = system: rabbit gastric parietal cells; assay: [14C]-aminopyrine (acid) accumulation in isolated gastric parietal cells; type: cell-based; settings: for IC50: Oryctolagus cuniculus; for effect on acid accumulation by isolated rabbit parietal cells: up to concentrations of 10^−4 M
Procedure: Strategy. Gastric parietal cells were isolated from New Zealand White Rabbits by pronase/collagenase digestion of fundic mucosa followed by enrichment of cells on discontinuous Nycodenz gradients in a manner known per se. Aminopyrine accumulation into parietal cells was assessed in 96 well filter plates with Durapore membranes. […] All determinations were performed in quadruplicate. Basal aminopyrine accumulation was determined as aminopyrine accumulation into […] (a reflection of non-specific isotope trapping).

[3] = Plasma ML3000 level after immediate release dosage forms; type: in vivo; settings: immediate release dosage form
[4] = system: human gastric adenocarcinoma (AGS) cells; assay: IL-8 secretion by AGS cells into culture medium (ELISA); type: cell-based; settings: 6 hr
gastric H,K-ATPase [5] = target: T1, gastric H,K-ATPase; assay: K+-stimulated, SCH28080-sensitive H,K-ATPase activity of pig gastric microsomes (32Pi release from ATP); type: biochemical; settings: concentrations up to 10^−3 M
gastric H,K-ATPase [6] = settings: cited from earlier work; for IC50: literature (refs 6, 7), read-out: published IC50, H,K-ATPase
[7] = AGS cells without IL-1β stimulation, read-out: IC50, baseline IL-8 secretion

SMILES: CCCCC/C=C\C/C=C\C/C=C\C/C=C\CCCC(=O)O [Arachidonic acid]
IC50 (gastric H,K-ATPase [1]): 30 µM

SMILES: CCCCC/C=C\C[C@@H](O)/C=C/C=C/C=C\[C@@H](O)CCCC(=O)O [LTB4, leukotriene B4]
effect on H,K-ATPase activity (gastric H,K-ATPase [1]): significant attentuation of H,K-ATPase activity
inhibitory activity against H,K-ATPase (gastric H,K-ATPase [1]): neither leukotriene showed any inhibitory activity

SMILES: CCCCC/C=C\C\C=C/C=C/C=C/[C@@H](SC[C@H](N)C(=O)NCC(=O)O)[C@@H](O)CCCC(=O)O [LTD4, leukotriene D4]
effect on H,K-ATPase activity (gastric H,K-ATPase [1]): significant attentuation of H,K-ATPase activity
inhibitory activity against H,K-ATPase (gastric H,K-ATPase [1]): neither leukotriene showed any inhibitory activity

SMILES: CC1(C)Cc2c(-c3ccccc3)c(-c3ccc(Cl)cc3)c(CC(=O)O)n2C1 [ML 3000, [6-(4-chlorophenyl)-2,2-dimethyl-7-phenyl-2,3-dihydro-1H-pyrrolizine-5-yl]-acetic acid]
IC50 ([2]; 100 μM histamine, read-out: IC50, histamine-stimulated acid accumulation): 40 µM
IC50 ([2]; read-out: IC50, forskolin-stimulated acid accumulation): ~45 µM
plasma ML3000 concentration maintained for 8 hours ([3]; dose 2.5 mg/kg): above 100 ng/mL
plasma ML3000 concentration maintained for 8 hours ([3]; dose 5 mg/kg): > 200 ng/mL
IC50 [4, 7]: 0.75 µM
IC50 ([4]; AGS cells, IL-1β (20 ng/ml), read-out: IC50, IL-1β-stimulated IL-8 secretion): 30 µM
reversibility of H,K-ATPase inhibition on dilution (gastric H,K-ATPase [1]; diluted from 100 μM to 3.3 μM): restored H,K-ATPase activity
effect of acidification on H,K-ATPase inhibitory profile (gastric H,K-ATPase [1]; half-maximal inhibitory concentration titrated to different pHs): no significant effect
IC50 (gastric H,K-ATPase [1]): 15 µM

SMILES: CS(=O)(=O)Nc1ccc([N+](=O)[O-])cc1OC1CCCCC1 [NS 398]
effect on acid accumulation by isolated rabbit parietal cells [2]: no effect
inhibitory effect on microsomal H,K-ATPase activity (gastric H,K-ATPase [1]): without inhibitory effects

SMILES: CC(=O)Oc1ccccc1C(=O)O [acetyl salicylic acid]
effect on acid accumulation by isolated rabbit parietal cells [2]: no effect
inhibitory effect on microsomal H,K-ATPase activity (gastric H,K-ATPase [5]): without inhibitory effects

SMILES: COc1ccc2c(c1)c(CC(=O)O)c(C)n2C(=O)c1ccc(Cl)cc1 [indomethacin]
inhibitory effect on microsomal H,K-ATPase activity (gastric H,K-ATPase [1]): without inhibitory effects
Ki (gastric H,K-ATPase [6]; previously reported (ref 10)): 670 µM

SMILES: Cc1c(OCC(F)(F)F)ccnc1C[S+]([O-])c1nc2ccccc2[nH]1 (centres unmarked) [lansoprazole]
IC50 (gastric H,K-ATPase [6]): 2.1 µM

SMILES: COc1ccc2cc([C@H](C)C(=O)O)ccc2c1 [naproxen]
inhibitory effect on microsomal H,K-ATPase activity (gastric H,K-ATPase [1]): without inhibitory effects

SMILES: COC(=O)c1cc2nc([S+]([O-])Cc3ncccc3C)[nH]c2cc1C (centres unmarked) [picoprazole]
IC50 (gastric H,K-ATPase [6]): 2 µM

Results, then the compound that gave them:

IC50 [4, 7]: ~0.4 µM
inhibition at 10 µM (gastric H,K-ATPase [1]; at 10^−5 M): ~20%
SMILES: COC1(c2cc(F)cc(OCc3ccc4c(ccc(=O)n4C)c3)c2)CCOCC1 [ZD-2138]

IC50 (gastric H,K-ATPase [1]): 45 µM
SMILES: CCCCC[C@H](O)/C=C/[C@H]1[C@H](O)CC(=O)[C@@H]1C/C=C\CCCC(=O)O [prostaglandin E2]
